Changes are numbered by the printed parent chain. Activity calls are given as the source filed them. The rule behind the calls is not given here.

For experiment [1], the target named is T1, E3 ubiquitin-protein ligase UHRF1 (Homo sapiens, UniProt Q96T88).
T1 sequence (Q96T88 whole entry): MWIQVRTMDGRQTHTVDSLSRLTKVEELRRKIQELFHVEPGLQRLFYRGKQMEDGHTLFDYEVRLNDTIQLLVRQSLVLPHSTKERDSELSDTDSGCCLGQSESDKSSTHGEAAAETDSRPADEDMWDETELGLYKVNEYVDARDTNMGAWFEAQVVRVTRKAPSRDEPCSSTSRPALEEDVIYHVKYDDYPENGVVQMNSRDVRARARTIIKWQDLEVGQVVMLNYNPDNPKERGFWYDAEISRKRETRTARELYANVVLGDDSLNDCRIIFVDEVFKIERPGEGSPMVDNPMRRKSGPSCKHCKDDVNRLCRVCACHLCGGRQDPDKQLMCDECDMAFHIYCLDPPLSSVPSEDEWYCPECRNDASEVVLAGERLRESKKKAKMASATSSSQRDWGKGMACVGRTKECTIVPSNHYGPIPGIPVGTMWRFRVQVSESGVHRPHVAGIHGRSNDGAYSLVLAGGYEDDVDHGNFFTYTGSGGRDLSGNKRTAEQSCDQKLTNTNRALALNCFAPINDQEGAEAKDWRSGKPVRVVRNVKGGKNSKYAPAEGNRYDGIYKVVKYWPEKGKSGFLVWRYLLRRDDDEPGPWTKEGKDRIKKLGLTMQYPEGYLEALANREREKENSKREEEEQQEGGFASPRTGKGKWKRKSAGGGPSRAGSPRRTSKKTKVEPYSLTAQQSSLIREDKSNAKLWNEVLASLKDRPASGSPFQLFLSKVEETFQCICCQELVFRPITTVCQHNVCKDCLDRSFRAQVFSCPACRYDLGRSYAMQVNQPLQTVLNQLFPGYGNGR
The experiment in a line: Binding affinity to 6His-tagged and human UHRF1 tandem TUDOR domain (126 to 285 residues) expressed in Escherichia coli BL21(DE3)-T1R by ITC method. (Isothermal titration calorimetry measures the heat released or taken up as one component is titrated into another.)

Experiment [2] has as its system T2, Lysine-specific demethylase 4A (Homo sapiens), O75164 [F932A].
T2 sequence (whole entry): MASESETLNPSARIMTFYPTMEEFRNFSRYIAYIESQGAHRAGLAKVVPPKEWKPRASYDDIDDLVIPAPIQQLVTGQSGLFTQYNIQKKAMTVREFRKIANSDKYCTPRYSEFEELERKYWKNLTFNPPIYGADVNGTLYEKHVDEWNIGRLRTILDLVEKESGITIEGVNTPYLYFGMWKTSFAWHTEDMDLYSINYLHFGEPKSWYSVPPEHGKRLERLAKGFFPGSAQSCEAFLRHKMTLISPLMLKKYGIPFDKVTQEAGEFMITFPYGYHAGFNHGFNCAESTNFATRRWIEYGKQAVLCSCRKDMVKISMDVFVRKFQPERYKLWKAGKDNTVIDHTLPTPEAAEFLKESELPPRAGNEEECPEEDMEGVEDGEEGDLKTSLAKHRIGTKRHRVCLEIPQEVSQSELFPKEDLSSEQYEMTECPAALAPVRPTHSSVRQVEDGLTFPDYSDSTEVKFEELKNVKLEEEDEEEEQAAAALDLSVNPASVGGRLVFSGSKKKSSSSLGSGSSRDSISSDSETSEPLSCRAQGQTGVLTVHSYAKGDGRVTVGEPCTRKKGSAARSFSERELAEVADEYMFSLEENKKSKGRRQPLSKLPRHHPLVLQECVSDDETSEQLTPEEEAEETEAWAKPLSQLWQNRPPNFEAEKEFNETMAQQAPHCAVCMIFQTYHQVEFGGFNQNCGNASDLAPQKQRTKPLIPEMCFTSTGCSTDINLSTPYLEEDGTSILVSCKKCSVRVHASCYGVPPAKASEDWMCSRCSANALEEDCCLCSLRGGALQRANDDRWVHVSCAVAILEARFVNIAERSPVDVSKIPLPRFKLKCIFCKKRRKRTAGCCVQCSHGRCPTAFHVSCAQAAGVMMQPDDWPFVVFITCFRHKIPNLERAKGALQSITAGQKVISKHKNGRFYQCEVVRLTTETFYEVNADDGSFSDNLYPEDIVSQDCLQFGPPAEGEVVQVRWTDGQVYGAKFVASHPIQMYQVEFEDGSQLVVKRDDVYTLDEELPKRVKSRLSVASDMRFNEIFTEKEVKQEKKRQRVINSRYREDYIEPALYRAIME
In words: Binding affinity to thrombin cleavable N-terminal 6His tagged and 13C-IVLM labeled human KDM4A tandem TUDOR domain (897 to 1011 residues) F932A mutant expressed in Escherichia coli BL21(DE3)-T1R by ITC method.

Experiment [3] has as its system T3, Lysine-specific demethylase 4A (Homo sapiens), O75164 [Y973A].
T3 sequence (whole entry): T2 sequence (whole entry) with A932F, Y973A
The experiment in a line: Binding affinity to thrombin cleavable N-terminal 6His tagged and 13C-IVLM labeled human KDM4A tandem TUDOR domain (897 to 1011 residues) Y973A mutant expressed in Escherichia coli BL21(DE3)-T1R by ITC method.

On to `CN(C)C[C@H]1C2CCC(c3ccccc3)(C2)[C@H]1O` (stereo partly drawn), for which the Kd result in experiment [1] is “Not Active”. The result in experiment [2] and in experiment [3] was inactive.

The values are drawn from ChEMBL document CHEMBL4190382, “Targeting lysine specific demethylase 4A (KDM4A) tandem TUDOR domain - A fragment based approach” (Bioorg Med Chem Lett, 2018).
